The record followed here is the SangsterLogP compilation.

This data set can be described thus: method code SF-AS, from DOI: 10.1016/0223-5234(89)90056-1. Particulars: pH 7.4.
On to `COc1nc2c(c(=O)n(C)c(=O)n2C)n1C`, for which the logD is -0.09.

In turn, `CCOC(=O)Cn1cccc2c([N+](=O)[O-])cnc1-2` registered a logD of -0.12.

Molecule `Cn1cc([N+](=O)[O-])c2cccnc21` registered a logD of 0.49.

The molecule `O=C(Cn1cccc2c([N+](=O)[O-])cnc1-2)NCCCN1CCOCC1` registered a logD of -0.52.

Consider `O=C(Cn1cc([N+](=O)[O-])c2cccnc21)NCCCN1CCOCC1`, for which the logD was -0.15.

Turning to `O=[N+]([O-])c1cn(CC(O)CO)c2ncccc12` (stereo not given), the logD is -0.28.

On to `O=[N+]([O-])c1cn(CCBr)c2ncccc12`, for which the logD came out at 1.95.

Take `CCOC(=O)Cn1cc([N+](=O)[O-])c2cccnc21`: the logD is 0.57.

For the molecule `O=[N+]([O-])c1c[nH]c2nccnc12`, the logD was -0.23.

Molecule `O=C(Cn1cc([N+](=O)[O-])c2cccnc21)NCCO` gave a logD of -0.19.
